Results from patent US10765625B2, “Knottin-drug conjugates and methods of using the same” (THE BOARD OF TRUSTEES OF THE LELAND STANFORD JUNIOR …, priority 2016, dated 2020).
Positions of bridges follow the written chain, without caps; N, C: chain ends. Non-standard residues stand in square brackets, D forms with d. Residues, ends and D or L forms follow the SMILES beside them. Orn(N3) = [N-]=[N+]=NCCC[C@H](N)C(=O)O

How the values were obtained:
[1] = test system: U87MG cells; assay: Competition binding assay with AF488-labeled EETI-2.5F (AF488-1), flow cytometry; details: for IC50: competition with 1 nM AF488-1, 4° C., 3 hours, read-out: IC50 (nM), binding affinity
Method: Once the knottin-drug conjugates 5a-d were prepared, their binding affinity to U87MG glioblastoma cells, which are known to have elevated expression of tumor-associated integrins, was tested. […] To measure the relative binding affinities of knottins 1 and 2 and KDCs 5a-d, competition binding assays were performed using AlexaFluor 488-conjugated EETI-2.5F (AF488-1) as previously described (J. W. Kim, et al., J. Am. Chem. Soc. 2015, 137, 6-9). Cells (5×10^4 per sample) were detached with 0.05% Trypsin-EDTA, washed with IBB (25 mM Tris pH 7.4, 150 mM NaCl, 2 mM CaCl2, 1 mM MgCl2, 1 mM MnCl2, and 0.1% bovine serum albumin), and incubated with 1 nM AF488-1 and varying concentrations of competitors in 800 μL of IBB at 4° C. for 3 hours. The cells were washed twice with 800 μL of PBSA (phosphate buffered saline containing 0.1% bovine serum albumin) and the fluorescence of the surface-bound AF488-1 was determined using flow cytometry. The fluorescence was normalized to that of cells treated with AF488-1 alone to obtain the fraction bound. Half-maximal inhibitory concentration (IC50) values were determined by nonlinear regression analysis. Error bars represent the standard deviation of experiments performed in triplicate.

[2] = test system: U87MG cells; assay: Integrin-blocking competition: cell proliferation (CCK-8) after pre-treatment with EETI-2.5F (1); type: cell-based; details: 1 μM 1, 3 h pre-treatment and co-treatment
Method: (§1) U87MG, and PANC-1 cells were grown in Dulbecco's Modified Eagle Medium (DMEM) with 10% fetal bovine serum (FBS) and 1% penicillin/streptomycin. MDA-MB-468 cells were grown in DMEM and Ham's F-12 medium (DMEM/F12) with 10% FBS and 1% penicillin/streptomycin. A2780 and BxPC3 cells were grown in Roswell Park Memorial Institute medium (RPMI) 1640+L-glutamine, with 10% FBS and 1% penicillin/streptomycin. D270 cells were grown in MEM (Richter's modification, no phenol red) with 10% FBS and 0.1% Gentamicin. Unless otherwise specified, cells were incubated at 37° C., 5% CO2. Flow cytometry was performed using an EMD Millpore Guava EasyCyte 8HT flow cytometer and the resulting data were evaluated using FlowJo software provided by TreeStar, Inc. Cell proliferation was measured using the Dojindo Cell Counting Kit-8 by replacing the media in each well with 100 μL of media containing 10% WST-8. After incubation for 1 h at 37° C., absorbance, A, at 450 nm was measured with a BioTek Synergy H4 microtiter plate reader. The background signal of CCK-8 alone was subtracted from all samples. Cell proliferation was then expressed as a percentage of absorbance relative to the control of untreated cells (Equation 2). Nonlinear regression analysis was performed using GraphPad Prism.
One possible explanation for the apparent hENT1-independence of 5d is that its route of internalization could be integrin-mediated. The role of integrin-binding in the biological potency and hENT1-independence of 5d was determined. A competition experiment was carried out in which U87MG cells were pre-treated with unconjugated EETI-2.5F (1) in order to block integrins on the cell surface. The role of integrin-binding was studied by measuring the proliferation of U87MG cells that had been pre-treated with EETI-2.5F (1) when exposed to increasing doses of 3 and KDCs 5a, 5c, and 5d. […] Media used to prepare varying concentrations of drug, protein, or protein-drug conjugate also contained 1 μM of 1. Prior to treatment, cells were incubated for 3 h at 37° C., 5% CO2 with fresh media containing 1 μM 1. After this pre-treatment, cells were incubated with varying concentrations of 5a, 5c, or 5d for 24 h and then media was replaced with fresh media and cells were incubated for an additional 48 h. Cell proliferation was measured using the Cell Counting Kit-8 by replacing the media in each well with 100 μL of media containing 10% WST-8. After incubation for 1 h at 37° C., absorbance at 450 nm was measured with a Synergy H4 microtiter plate reader. Cell proliferation was measured according to the method described in Section 1.3. Error bars represent the standard deviation of experiments performed in triplicate.

[3] = test system: U87MG cells; assay: Premature drug release study: cell proliferation (CCK-8) with hENT1 inhibitor 6 co-administered; type: cell-based; details: for Fold Increase in ED50 in U87MG Cells: ED50 with 6 / ED50 without 6, minus 1
Method: as §1
The relative extent of premature drug-release in the cases of 5a, 5c, and 5d was next determined in order to identify the linker best-suited for delivering the drug payload intracellularly. An established technique for blocking the cellular uptake of Gemcitabine by using S (4-nitrobenzyl)-6-thioinosine (6) was employed, which is known to inhibit human equilibrative nucleoside transporters, such as hENT1. Because hENT1 is a critical regulator of the cellular internalization of Gemcitabine, it was reasoned that by inhibiting its activity with 6, the cytotoxic effect of any drug payload that was released in the extracellular environment could be diminished. It was anticipated that this would allow the distinction between KDCs that were potent due to the undesirable release of Gemcitabine outside of the cell from those that released Gemcitabine intracellularly (FIG. 6). The extent of premature drug release in the extracellular environment was studied by inhibiting activity of nucleoside transporters (such as hENT1) of U87MG cells through the use of the hENT1 inhibitor S-(4-nitrobenzyl)-6-thioinosine (6). […] In a similar fashion, it was expected that for KDCs which released a significant amount of the drug payload in the extracellular environment, an increase in the concentration of 6 should result in a concomitant increase in ED50 value.
Media used to prepare varying concentrations of drug, protein, or protein-drug conjugate also contained varying concentrations of the hENT1 inhibitor, 6. Additionally, prior to treatment, cell were incubated at 37° C., 5% CO2 with fresh media containing the varying concentrations of 6 for 2 h. Cell proliferation was measured using the Cell Counting Kit-8 by replacing the media in each well with 100 μL of media containing 10% WST-8. After incubation for 1 h at 37° C., absorbance at 450 nm was measured with a Synergy H4 microtiter plate reader. ED50 values were determined by nonlinear regression analysis. Example dose-response curves for 3 (FIG. 7) and 5d (FIG. 8) are provided. Cell proliferation was measured according to the method described in Section 1.3. Error bars represent the standard deviation of experiments performed in triplicate.
These values were normalized as Fold Increase in ED50 (defined in Equation 2) by dividing the ED50 of each drug when 6 was co-administered at concentration=C by the ED50 of that same drug when no 6 was added, then subtracting 1 (thus, a “0-fold increase” would mean no increase, while a “1-fold increase” would mean that the ED50 value had doubled). Fold Increase in ED50 for each drug at each concentration of 6 is provided in Table 5, and these values were used to generate FIG. 9.

[4] = test system: U87MG cells; assay: Cell proliferation, CCK-8 colorimetric assay; type: cell-based; details: U87MG cells; for Potency / growth inhibition in U87MG cells (in words): 4 d; for EC50: 4 d incubation, vs untreated control, read-out: ED50 (nM), potency
Method: as §1
Next, the potency of each KDC was tested in a cell-proliferation experiment. […] Cells were seeded in a 96-well plate at a density of 2,500 cells per well and grown overnight at 37° C., 5% CO2 in DMEM with 10% FBS and 1% penicillin/streptomycin. Cells were subsequently treated with 100 μL of fresh media, containing varying concentrations of drug, protein, or protein-drug conjugate and incubated for 4 d at 37° C., 5% CO2. Cell proliferation was measured according to the method described in Section 1.3. Error bars represent the standard deviation of experiments performed in triplicate. […] Given that the linker must be cleaved to release free Gemcitabine in order for the payload to become active, the low potency of 5b can be explained by the greater stability of the carbamate group as compared to the other linkers tested.

CC(C)C[C@@H]1NC(=O)[C@@H]2CSSC[C@@H](C(=O)NCC(=O)O)NC(=O)[C@H](Cc3ccccc3)NC(=O)CNC(=O)[C@H](CC(N)=O)NC(=O)[C@@H]3CCCN3C(=O)CNC(=O)[C@@H]3CSSC[C@H](NC(=O)[C@H]([C@@H](C)O)NC(=O)[C@H](CC(C)C)NC(=O)[C@@H]4CCCN4C(=O)[C@@H]4CCCN4C(=O)[C@H](CC(N)=O)NC(=O)[C@H](CC(=O)O)NC(=O)CNC(=O)[C@H](CCCNC(=N)N)NC(=O)[C@@H]4CCCN4C(=O)[C@H](CCCNC(=N)N)NC(=O)[C@@H]4CCCN4C(=O)[C@@H](NC(=O)CN)CSSC[C@H](NC(=O)CNC(=O)[C@H](C)NC1=O)C(=O)N[C@@H](C(C)C)C(=O)N3)C(=O)N[C@@H](CCCn1cc(CCC(=O)OC[C@H]3O[C@@H](n4ccc(N)nc4=O)C(F)(F)[C@@H]3O)nn1)C(=O)N[C@@H](CCC(N)=O)C(=O)N[C@@H](CC(=O)O)C(=O)N[C@@H](CO)C(=O)N[C@@H](CC(=O)O)C(=O)N2 [5a]
IC50 [1]: 5.2 ± 3.6 nM | Effect of integrin blocking by pre-treatment with 1 on potency (in words) [2]: did not diminish the potency | Effect of hENT1 inhibitor 6 on potency (ED50) (in words) ([3]; U87MG cells, increasing concentrations of 6 up to 10 μM): increased significantly | Fold Increase in ED50 in U87MG Cells ([3]; [6] = 0 nM): 0 | Fold Increase in ED50 in U87MG Cells ([3]; [6] = 1 nM): 1.1 ± 0.5 | Fold Increase in ED50 in U87MG Cells ([3]; [6] = 10 nM): 3.2 ± 0.3 | Fold Increase in ED50 in U87MG Cells ([3]; [6] = 100 nM): 14.5 ± 0.5 | Fold Increase in ED50 in U87MG Cells ([3]; [6] = 1000 nM): 17.9 ± 0.0 | Fold Increase in ED50 in U87MG Cells ([3]; [6] = 10000 nM): 134.7 ± 0.4 | Potency / growth inhibition in U87MG cells (in words) [4]: low-nanomolar ED50 values | EC50 [4]: 8.5 ± 3.3 nM

CC(C)C[C@@H]1NC(=O)[C@@H]2CSSC[C@@H](C(=O)NCC(=O)O)NC(=O)[C@H](Cc3ccccc3)NC(=O)CNC(=O)[C@H](CC(N)=O)NC(=O)[C@@H]3CCCN3C(=O)CNC(=O)[C@@H]3CSSC[C@H](NC(=O)[C@H]([C@@H](C)O)NC(=O)[C@H](CC(C)C)NC(=O)[C@@H]4CCCN4C(=O)[C@@H]4CCCN4C(=O)[C@H](CC(N)=O)NC(=O)[C@H](CC(=O)O)NC(=O)CNC(=O)[C@H](CCCNC(=N)N)NC(=O)[C@@H]4CCCN4C(=O)[C@H](CCCNC(=N)N)NC(=O)[C@@H]4CCCN4C(=O)[C@@H](NC(=O)CN)CSSC[C@H](NC(=O)CNC(=O)[C@H](C)NC1=O)C(=O)N[C@@H](C(C)C)C(=O)N3)C(=O)N[C@@H](CCCn1cc(CCCNC(=O)OC[C@H]3O[C@@H](n4ccc(N)nc4=O)C(F)(F)[C@@H]3O)nn1)C(=O)N[C@@H](CCC(N)=O)C(=O)N[C@@H](CC(=O)O)C(=O)N[C@@H](CO)C(=O)N[C@@H](CC(=O)O)C(=O)N2 [5b]
IC50 [1]: 3.3 ± 0.2 nM | Potency / growth inhibition in U87MG cells (in words) [4]: lacked significant potency | EC50 [4]: > 1000 nM

CC(C)C[C@@H]1NC(=O)[C@@H]2CSSC[C@@H](C(=O)NCC(=O)O)NC(=O)[C@H](Cc3ccccc3)NC(=O)CNC(=O)[C@H](CC(N)=O)NC(=O)[C@@H]3CCCN3C(=O)CNC(=O)[C@@H]3CSSC[C@H](NC(=O)[C@H]([C@@H](C)O)NC(=O)[C@H](CC(C)C)NC(=O)[C@@H]4CCCN4C(=O)[C@@H]4CCCN4C(=O)[C@H](CC(N)=O)NC(=O)[C@H](CC(=O)O)NC(=O)CNC(=O)[C@H](CCCNC(=N)N)NC(=O)[C@@H]4CCCN4C(=O)[C@H](CCCNC(=N)N)NC(=O)[C@@H]4CCCN4C(=O)[C@@H](NC(=O)CN)CSSC[C@H](NC(=O)CNC(=O)[C@H](C)NC1=O)C(=O)N[C@@H](C(C)C)C(=O)N3)C(=O)N[C@@H](CCCN=[N+]=[N-])C(=O)N[C@@H](CCC(N)=O)C(=O)N[C@@H](CC(=O)O)C(=O)N[C@@H](CO)C(=O)N[C@@H](CC(=O)O)C(=O)N2 [compound 2] (H-GCPRPRGDNPPLTC[Orn(N3)]QDSDCLAGCVCGPNGFCG-OH; disulfide 2-24, 14-26, 20-32; N-terminus and C-terminus assumed)
Binding affinity to U87MG cells (in words) [1]: low-nanomolar binding affinity | IC50 [1]: 1.1 ± 1.8 nM | Potency / growth inhibition in U87MG cells (in words) [4]: did not show significant growth-inhibition activity | EC50 [4]: > 1000 nM
